In ChEMBL document CHEMBL3091421, “Discovery of benzo[d]imidazo[5,1-b]thiazole as a new class of phosphodiesterase 10A inhibitors” (Bioorg Med Chem Lett, 2013):

Tests used:
[1] = molecular target: cAMP and cAMP-inhibited cGMP 3',5'-cyclic phosphodiesterase 10A (Homo sapiens, UniProt Q9Y233); assay: Inhibition of human recombinant PDE10A using [3H]-cAMP/[3H]-cGMP as substrate after 30 mins by radiometric assay
[2] = molecular target: cGMP-dependent 3',5'-cyclic phosphodiesterase (Homo sapiens) (UniProt O00408); assay: Inhibition of PDE2A (unknown origin) using cAMP as substrate at 10 uM after 30 mins by HTRF method
Chain of cGMP-dependent 3',5'-cyclic phosphodiesterase (Homo sapiens) (O00408 whole entry): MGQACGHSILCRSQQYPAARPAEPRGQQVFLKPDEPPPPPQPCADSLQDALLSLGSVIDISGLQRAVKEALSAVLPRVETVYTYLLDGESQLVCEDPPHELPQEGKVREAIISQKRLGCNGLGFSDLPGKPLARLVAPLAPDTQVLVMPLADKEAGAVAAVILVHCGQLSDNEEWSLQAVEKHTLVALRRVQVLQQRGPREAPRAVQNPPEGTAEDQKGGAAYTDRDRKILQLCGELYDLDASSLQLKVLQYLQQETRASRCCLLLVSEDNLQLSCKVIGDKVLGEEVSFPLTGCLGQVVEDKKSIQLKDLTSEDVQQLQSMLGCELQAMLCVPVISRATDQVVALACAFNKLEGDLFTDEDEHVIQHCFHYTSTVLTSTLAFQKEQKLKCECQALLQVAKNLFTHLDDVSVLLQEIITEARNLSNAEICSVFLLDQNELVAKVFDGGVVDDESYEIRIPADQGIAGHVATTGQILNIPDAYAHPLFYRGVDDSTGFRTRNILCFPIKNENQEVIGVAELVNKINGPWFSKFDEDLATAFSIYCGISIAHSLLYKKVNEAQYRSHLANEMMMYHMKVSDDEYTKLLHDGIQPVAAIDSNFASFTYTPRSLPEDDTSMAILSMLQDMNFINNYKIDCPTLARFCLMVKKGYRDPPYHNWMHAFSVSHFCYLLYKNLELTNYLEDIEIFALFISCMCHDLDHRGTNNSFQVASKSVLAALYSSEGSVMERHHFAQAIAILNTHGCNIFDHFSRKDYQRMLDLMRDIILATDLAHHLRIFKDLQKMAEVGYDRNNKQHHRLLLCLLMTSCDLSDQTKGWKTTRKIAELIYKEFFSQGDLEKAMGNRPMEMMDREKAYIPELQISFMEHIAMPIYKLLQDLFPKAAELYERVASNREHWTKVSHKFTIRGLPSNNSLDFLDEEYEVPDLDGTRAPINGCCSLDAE

[3] = molecular target: 3',5'-cyclic-AMP phosphodiesterase 4D (Homo sapiens) (UniProt Q08499); assay: Inhibition of PDE4D (unknown origin) using cAMP as substrate at 10 uM after 30 mins
Homo sapiens [4] = organism: Homo sapiens; assay: Selectivity ratio of IC50 for PDE2A (unknown origin) to IC50 for human recombinant PDE10A
Homo sapiens [5] = organism: Homo sapiens; assay: Selectivity ratio of IC50 for PDE4D (unknown origin) to IC50 for human recombinant PDE10A
Homo sapiens [6] = organism: Homo sapiens; assay: Selectivity ratio of IC50 for PDE7A1 (unknown origin) to IC50 for human recombinant PDE10A
Homo sapiens [7] = organism: Homo sapiens; assay: Selectivity ratio of IC50 for PDE1A (unknown origin) to IC50 for human recombinant PDE10A
[8] = molecular target: Dual 3',5'-cyclic-AMP and -GMP phosphodiesterase 11A (Homo sapiens) (UniProt Q9HCR9); assay: Inhibition of PDE11A (unknown origin) using [3H]-cAMP as substrate at 10 uM after 30 mins by radiometric assay
[9] = Metabolic stability in rat liver microsomes assessed as compound remaining after 60 mins; type: ADME; settings: read-out: Stability
Homo sapiens [10] = organism: Homo sapiens; assay: Selectivity ratio of IC50 for PDE8A (unknown origin) to IC50 for human recombinant PDE10A
[11] = molecular target: High affinity 3',5'-cyclic-AMP phosphodiesterase 7A (Homo sapiens) (UniProt Q13946); assay: Inhibition of PDE7A1 (unknown origin) using [3H]-cAMP as substrate at 10 uM after 30 mins by radiometric assay
Chain of High affinity 3',5'-cyclic-AMP phosphodiesterase 7A (Homo sapiens) (Q13946 whole entry): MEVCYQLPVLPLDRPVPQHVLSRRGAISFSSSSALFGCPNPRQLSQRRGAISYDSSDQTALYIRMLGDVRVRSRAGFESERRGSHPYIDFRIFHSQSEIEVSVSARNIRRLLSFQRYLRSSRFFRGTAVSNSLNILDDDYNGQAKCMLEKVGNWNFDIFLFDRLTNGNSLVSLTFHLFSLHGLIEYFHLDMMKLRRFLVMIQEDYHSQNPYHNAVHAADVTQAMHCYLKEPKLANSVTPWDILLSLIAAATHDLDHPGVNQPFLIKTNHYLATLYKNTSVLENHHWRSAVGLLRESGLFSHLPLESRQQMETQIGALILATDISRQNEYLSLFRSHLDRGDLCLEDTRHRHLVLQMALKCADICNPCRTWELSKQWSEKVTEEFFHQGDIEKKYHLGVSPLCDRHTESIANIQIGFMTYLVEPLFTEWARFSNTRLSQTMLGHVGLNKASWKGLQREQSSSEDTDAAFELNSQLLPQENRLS

Homo sapiens [12] = organism: Homo sapiens; assay: Selectivity ratio of IC50 for PDE9A2 (unknown origin) to IC50 for human recombinant PDE10A
Homo sapiens [13] = organism: Homo sapiens; assay: Selectivity ratio of IC50 for PDE5A (unknown origin) to IC50 for human recombinant PDE10A
Homo sapiens [14] = organism: Homo sapiens; assay: Selectivity ratio of IC50 for PDE11A (unknown origin) to IC50 for human recombinant PDE10A
[15] = molecular target: cGMP-inhibited 3',5'-cyclic phosphodiesterase 3A (Homo sapiens) (UniProt Q14432); assay: Inhibition of PDE3A (unknown origin) using cAMP as substrate at 10 uM after 30 mins by HTRF method
Chain of cGMP-inhibited 3',5'-cyclic phosphodiesterase 3A (Homo sapiens) (Q14432 whole entry): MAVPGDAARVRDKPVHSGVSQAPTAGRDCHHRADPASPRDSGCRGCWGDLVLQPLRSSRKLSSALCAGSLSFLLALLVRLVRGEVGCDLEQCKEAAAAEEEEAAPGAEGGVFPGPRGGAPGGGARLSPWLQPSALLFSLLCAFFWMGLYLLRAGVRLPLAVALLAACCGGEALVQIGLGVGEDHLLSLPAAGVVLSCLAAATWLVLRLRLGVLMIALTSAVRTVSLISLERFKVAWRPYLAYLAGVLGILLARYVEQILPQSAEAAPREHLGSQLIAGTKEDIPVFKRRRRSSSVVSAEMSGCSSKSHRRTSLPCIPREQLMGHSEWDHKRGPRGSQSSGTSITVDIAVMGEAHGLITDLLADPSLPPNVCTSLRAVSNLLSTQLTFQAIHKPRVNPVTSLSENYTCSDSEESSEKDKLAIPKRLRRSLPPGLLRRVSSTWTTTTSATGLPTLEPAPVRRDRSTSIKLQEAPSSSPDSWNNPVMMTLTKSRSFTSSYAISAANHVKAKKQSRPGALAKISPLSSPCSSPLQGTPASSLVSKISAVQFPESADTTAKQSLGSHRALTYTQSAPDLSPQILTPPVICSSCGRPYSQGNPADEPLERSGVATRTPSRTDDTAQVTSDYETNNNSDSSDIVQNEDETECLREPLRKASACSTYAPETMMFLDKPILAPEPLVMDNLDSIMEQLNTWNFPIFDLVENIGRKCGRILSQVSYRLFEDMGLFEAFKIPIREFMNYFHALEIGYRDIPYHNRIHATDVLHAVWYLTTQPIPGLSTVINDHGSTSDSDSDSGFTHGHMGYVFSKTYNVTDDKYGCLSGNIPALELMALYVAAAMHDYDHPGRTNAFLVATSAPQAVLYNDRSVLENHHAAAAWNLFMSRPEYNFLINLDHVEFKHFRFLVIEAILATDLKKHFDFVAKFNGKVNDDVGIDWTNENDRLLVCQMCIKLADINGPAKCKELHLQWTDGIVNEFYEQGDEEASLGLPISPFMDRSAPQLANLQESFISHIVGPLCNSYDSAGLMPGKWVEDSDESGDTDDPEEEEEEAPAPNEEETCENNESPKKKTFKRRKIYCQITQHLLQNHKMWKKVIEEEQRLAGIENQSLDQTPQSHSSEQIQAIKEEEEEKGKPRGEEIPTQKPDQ

[16] = molecular target: High affinity cGMP-specific 3',5'-cyclic phosphodiesterase 9A (Homo sapiens) (UniProt O76083); assay: Inhibition of PDE9A2 (unknown origin) using [3H]-cGMP as substrate at 10 uM after 30 mins by radiometric assay
Chain of High affinity cGMP-specific 3',5'-cyclic phosphodiesterase 9A (Homo sapiens) (O76083 whole entry): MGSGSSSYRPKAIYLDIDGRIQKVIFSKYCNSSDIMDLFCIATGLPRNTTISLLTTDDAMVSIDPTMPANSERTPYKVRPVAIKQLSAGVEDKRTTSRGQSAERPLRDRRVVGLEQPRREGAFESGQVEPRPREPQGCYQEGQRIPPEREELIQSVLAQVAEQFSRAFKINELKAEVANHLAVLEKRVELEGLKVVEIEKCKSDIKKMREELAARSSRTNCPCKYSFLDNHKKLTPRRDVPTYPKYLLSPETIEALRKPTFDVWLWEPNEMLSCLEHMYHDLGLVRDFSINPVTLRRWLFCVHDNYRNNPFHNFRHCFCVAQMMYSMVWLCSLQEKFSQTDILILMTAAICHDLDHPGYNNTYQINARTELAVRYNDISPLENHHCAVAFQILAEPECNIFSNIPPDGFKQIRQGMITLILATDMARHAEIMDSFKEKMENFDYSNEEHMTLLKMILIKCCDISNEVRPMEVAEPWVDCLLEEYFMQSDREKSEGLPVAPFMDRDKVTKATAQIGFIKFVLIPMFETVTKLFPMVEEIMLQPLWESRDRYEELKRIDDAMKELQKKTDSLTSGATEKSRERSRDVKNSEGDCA

[17] = molecular target: High affinity cAMP-specific and IBMX-insensitive 3',5'-cyclic phosphodiesterase 8A (Homo sapiens) (UniProt O60658); assay: Inhibition of PDE8A (unknown origin) using [3H]-cAMP as substrate at 10 uM after 30 mins by radiometric assay
Chain of High affinity cAMP-specific and IBMX-insensitive 3',5'-cyclic phosphodiesterase 8A (Homo sapiens) (O60658 whole entry): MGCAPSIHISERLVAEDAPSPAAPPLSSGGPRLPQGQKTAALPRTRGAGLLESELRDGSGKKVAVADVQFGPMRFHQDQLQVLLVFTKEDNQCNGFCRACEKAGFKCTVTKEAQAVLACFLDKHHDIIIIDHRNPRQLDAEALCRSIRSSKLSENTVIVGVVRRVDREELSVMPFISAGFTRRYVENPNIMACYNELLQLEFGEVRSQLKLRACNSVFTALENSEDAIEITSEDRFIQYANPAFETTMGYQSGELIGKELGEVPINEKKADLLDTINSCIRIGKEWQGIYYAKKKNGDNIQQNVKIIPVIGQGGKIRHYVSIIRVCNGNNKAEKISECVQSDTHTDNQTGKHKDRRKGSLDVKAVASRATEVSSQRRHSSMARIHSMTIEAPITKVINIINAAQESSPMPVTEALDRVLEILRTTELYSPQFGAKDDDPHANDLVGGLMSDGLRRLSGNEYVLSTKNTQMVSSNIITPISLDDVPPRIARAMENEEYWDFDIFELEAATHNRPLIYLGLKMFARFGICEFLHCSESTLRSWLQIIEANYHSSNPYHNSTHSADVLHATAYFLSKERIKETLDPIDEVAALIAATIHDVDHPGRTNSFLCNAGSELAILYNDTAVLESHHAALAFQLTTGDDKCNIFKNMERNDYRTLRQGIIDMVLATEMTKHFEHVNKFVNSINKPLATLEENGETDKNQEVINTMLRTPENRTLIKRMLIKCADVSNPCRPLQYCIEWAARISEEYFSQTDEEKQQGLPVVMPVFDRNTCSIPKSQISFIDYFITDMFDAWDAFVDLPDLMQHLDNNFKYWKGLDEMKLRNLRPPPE

[18] = Metabolic stability in human liver microsomes assessed as compound remaining after 60 mins; type: ADME; settings: read-out: Stability
[19] = molecular target: cGMP-specific 3',5'-cyclic phosphodiesterase (Homo sapiens) (UniProt O76074); assay: Inhibition of PDE5A (unknown origin) using [3H]-cGMP as substrate at 10 uM after 30 mins by radiometric assay
Homo sapiens [20] = organism: Homo sapiens; assay: Selectivity ratio of IC50 for PDE3A (unknown origin) to IC50 for human recombinant PDE10A
[21] = Drug uptake in Sprague-Dawley rat brain at 10 mg/kg, po after 30 mins; type: ADME, organism-based; parameters: dose 10 mg/kg, route oral; settings: read-out: Drug uptake
[22] = Ratio of drug level in brain to plasma in Sprague-Dawley rat at 10 mg/kg, po after 30 mins; type: ADME, organism-based; parameters: dose 10 mg/kg, route oral; settings: brain and plasma, read-out: BPR
[23] = Plasma concentration in Sprague-Dawley rat at 10 mg/kg, po after 30 mins; type: ADME, organism-based; parameters: dose 10 mg/kg, route oral
Rattus norvegicus = assay: Antipsychotic activity in Sprague-Dawley rat psychosis model assessed as inhibition of MK-801-induced hyperlocomotion at 1 mg/kg, ip administered 5 mins prior to MK-801-challenge measured after 15 mins up to 1 hr; type: functional; settings: route intraperitoneal

Chain of cAMP and cAMP-inhibited cGMP 3',5'-cyclic phosphodiesterase 10A (Q9Y233 whole entry): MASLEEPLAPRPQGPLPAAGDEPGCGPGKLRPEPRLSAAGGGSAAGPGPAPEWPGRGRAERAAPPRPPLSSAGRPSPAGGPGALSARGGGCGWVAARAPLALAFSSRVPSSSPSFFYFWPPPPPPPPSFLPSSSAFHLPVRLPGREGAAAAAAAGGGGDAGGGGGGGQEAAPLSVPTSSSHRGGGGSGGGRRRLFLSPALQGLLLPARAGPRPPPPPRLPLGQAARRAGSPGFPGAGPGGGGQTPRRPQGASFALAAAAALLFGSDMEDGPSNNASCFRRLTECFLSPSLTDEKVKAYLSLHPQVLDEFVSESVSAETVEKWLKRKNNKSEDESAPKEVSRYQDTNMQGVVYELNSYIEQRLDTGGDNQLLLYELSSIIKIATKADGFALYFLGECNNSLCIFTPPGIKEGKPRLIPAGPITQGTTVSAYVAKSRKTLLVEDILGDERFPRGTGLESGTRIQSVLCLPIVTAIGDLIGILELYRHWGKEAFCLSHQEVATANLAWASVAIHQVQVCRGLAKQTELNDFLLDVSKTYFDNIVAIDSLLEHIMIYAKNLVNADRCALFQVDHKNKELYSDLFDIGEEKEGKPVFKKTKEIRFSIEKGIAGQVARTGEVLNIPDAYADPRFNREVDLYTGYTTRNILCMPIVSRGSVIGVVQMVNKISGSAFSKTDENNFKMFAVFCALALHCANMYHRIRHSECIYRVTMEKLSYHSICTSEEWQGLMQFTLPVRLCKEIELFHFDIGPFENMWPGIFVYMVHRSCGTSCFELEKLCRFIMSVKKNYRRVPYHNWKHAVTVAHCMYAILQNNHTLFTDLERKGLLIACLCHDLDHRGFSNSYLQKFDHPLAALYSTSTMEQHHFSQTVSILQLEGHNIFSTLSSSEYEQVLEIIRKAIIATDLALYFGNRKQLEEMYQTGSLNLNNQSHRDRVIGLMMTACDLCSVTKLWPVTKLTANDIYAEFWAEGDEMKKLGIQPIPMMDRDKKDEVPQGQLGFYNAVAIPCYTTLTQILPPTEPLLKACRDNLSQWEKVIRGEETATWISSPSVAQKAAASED

Row | Structure (SMILES) | IC50 [1] | remaining at 1 h [9] | remaining at 1 h [18] | concentration at 0.5 h [21] | Kp at 0.5 h [22] | concentration at 0.5 h [23] | other results
1 | c1ccc2nc(COc3ccc4c(c3)sc3nnc(-c5ccncc5)n34)ccc2c1 | 666 nM | – | – | – | – | – | –
2 | CC(=O)N1CCC(c2nc(C)c3sc4cc(OCc5ccc6ccccc6n5)ccc4n23)CC1 | 8.96 nM | 48% | 76% | 165 ng/g | 0.42 | 396 ng/mL | –
3 | Cc1nc(C2CCOC2)n2c1sc1cc(OCc3ccc4ccccc4n3)ccc12 (configuration not stated) | 18.5 nM | 37% | 45% | – | – | – | –
4 | Cc1nc(-c2ccnnc2)n2c1sc1cc(OCc3ccc4ccccc4n3)ccc12 | 13.9 nM | 3% | 30% | – | – | – | –
5 | Cc1nc2n(c(=O)c1CCN1CCC(c3noc4cc(F)ccc34)CC1)CCCC2 [RISPERIDONE] | – | – | – | – | – | – | inhibition in vivo at 1 mg/kg (Rattus norvegicus): 72%
6 | Cc1nc([C@@]23COC[C@@H]2C3)n2c1sc1cc(OCc3ccc4ccccc4n3)ccc12 | 6.88 nM | 60% | 37% | 430 ng/g | 2.62 | 164 ng/mL | –
7 | Cc1nc2sc3cc(OCc4ccc5ccccc5n4)ccc3n2c1-c1ccncc1 | 351 nM | – | – | – | – | – | –
8 | Cc1cc(-c2nc(C)c3sc4cc(OCc5ccc6ccccc6n5)ccc4n23)ccn1 | 8.73 nM | 19% | 5% | – | – | – | –
9 | Cc1nc(C2CNC2)n2c1sc1cc(OCc3ccc4ccccc4n3)ccc12 | 157 nM | 80% | 100% | – | – | – | –

Second part, led by results:

Row | IC50 [1] | remaining at 1 h [9] | remaining at 1 h [18] | concentration at 0.5 h [21] | Kp at 0.5 h [22] | concentration at 0.5 h [23] | Structure (SMILES) | other results
10 | 4.85 nM | 22% | 5% | – | – | – | Cc1nc(-c2ccncc2)n2c1sc1cc(OCc3ccc4ccccc4n3)ccc12 | inhibition [2]: 67.2%; inhibition [3]: 27.1%; Ratio IC50 (Homo sapiens [4]): > 500; Ratio IC50 (Homo sapiens [5]): > 500; Ratio IC50 (Homo sapiens [6]): > 500; Ratio IC50 (Homo sapiens [7]): > 500; inhibition [8]: 21.4%; Ratio IC50 (Homo sapiens [10]): > 500; inhibition [11]: 42.3%; Ratio IC50 (Homo sapiens [12]): > 500; Ratio IC50 (Homo sapiens [13]): > 500; Ratio IC50 (Homo sapiens [14]): > 500; inhibition [15]: 26%; inhibition [16]: 22.8%; inhibition [17]: 0%; inhibition [19]: 34%; Ratio IC50 (Homo sapiens [20]): > 500
11 | 5.12 nM | 70% | 44% | 732 ng/g | 1.86 | 394 ng/mL | Cc1nc([C@]23COC[C@H]2C3)n2c1sc1cc(OCc3ccc4ccccc4n3)ccc12 | –
12 | 6.73 nM | 42% | 50% | 62 ng/g | 0.45 | 137 ng/mL | CC(=O)N1CC(c2nc(C)c3sc4cc(OCc5ccc6ccccc6n5)ccc4n23)C1 | –
13 | 0.9 nM | 20% | 3% | – | – | – | Cc1nc(C)c(-c2nc(C)c3sc4cc(OCc5ccc6ccccc6n5)ccc4n23)s1 | –
